Experimental data: US6632829B2, “Sulfonamides and derivatives thereof that modulate the activity of endothelin” (Texas Biotechnology Corp., priority 1996, dated 2003)

Experiments:
human ETB receptor = target: T1, human ETB receptor (Homo sapiens, UniProt P24530); experiment: Endothelin binding inhibition, Binding Test #2: competition with 125I-ET-1 for ETB receptors on transfected COS7 cell membranes; conditions: incubation at 24° C. (values marked †)
T1 construct: expressed in transfected cells; host or cells: COS7 cells
T1 sequence (P24530 27-442): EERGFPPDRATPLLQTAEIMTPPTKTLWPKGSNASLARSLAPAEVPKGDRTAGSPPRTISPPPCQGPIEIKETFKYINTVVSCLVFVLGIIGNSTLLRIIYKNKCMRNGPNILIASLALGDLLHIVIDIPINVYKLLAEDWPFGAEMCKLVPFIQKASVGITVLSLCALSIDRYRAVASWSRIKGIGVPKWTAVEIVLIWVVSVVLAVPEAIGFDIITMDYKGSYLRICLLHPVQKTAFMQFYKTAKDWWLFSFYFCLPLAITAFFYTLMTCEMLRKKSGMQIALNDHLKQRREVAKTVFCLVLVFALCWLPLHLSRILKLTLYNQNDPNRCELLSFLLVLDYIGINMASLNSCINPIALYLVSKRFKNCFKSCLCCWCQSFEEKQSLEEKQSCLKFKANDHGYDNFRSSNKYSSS
Outline: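 Membranes from COS7 cells transfected with human ETB receptor, prepared in HEPES pH 7.4 with aprotinin, MnCl2/DNase treatment at 37° C for 30 min. Test compounds compete with 125I-labeled ET-1 for receptor binding; membrane used at 1 μg/50 μL binding buffer.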

[1] = tested on: Pulmonary Hypertension model; experiment: Pulmonary Hypertension model; format: in vivo, rat; design: key: ++: effective at 5 mg/kg; −: no effect at 5 mg/kg; +: effective at 15 mg/kg
Protocol: As used herein, efficacy refers to the maximal effect that can be produced by a compound. Efficacy can be determined by methods known to those of skill in the art. For example, it can be determined by the properties of the compound and its receptor-effector system and is reflected in the plateau of the concentration-effect curve. In vivo efficacy refers to efficacy which is determined in an animal model. For example, in vivo efficacy of the compounds described herein can be determined by hypoxia-induced pulmonary hypertension in rat. See, e.g., DiCarlo et al. (1995) Am. J. Physiol. 269:[…]-[…]. Table 2 lists oral half-life, bioavailability, and in vivo activity of selected exemplary compounds. The in vivo activity was measured in a pulmonary hypertension model and is a measure of the activity of the compounds at selected dosages.

Q: Which IC50 (human ETB receptor) does the source give for Cc1cc(C)c(NC(=O)c2sccc2S(=O)(=O)Nc2onc(C)c2Cl)c(C)c1O [N-(4-chloro-3-methyl-5-isoxazolyl)-2-(3-hydroxy-2,4,6-trimethylphenylaminocarbonyl)thiophene-3-sulfonamide] here?
A: 18.7 µM

Q: And the “in vivo Efficacy” value [1]?
A: ++
